Assay results: the NIST ThermoML archive (doi:10.1016/j.tca.2015.02.014)

Assay: mn = molality of the nth substance listed, in mol/kg
Conditions: 100 kPa, Liquid; for viscosity: Capillary tube (Ostwald / Ubbelohde) method; for speed of sound: Frequency=3 MHz, Sing-around technique in a fixed-path interferometer; for mass density: Vibrating tube method

C[C@H](CCC(=O)[O-])[C@H]1CC[C@H]2[C@@H]3[C@H](O)C[C@@H]4C[C@H](O)CC[C@]4(C)[C@H]3C[C@H](O)[C@]12C.[Na+] [sodium cholate] + O
Conditions	mass density [kg/m3]	speed of sound [m/s]	viscosity [mPa·s]
293.15 K, m1 = 0.001	998.33	1483	1.003
293.15 K, m1 = 0.002	998.422	1483.3	1.004
293.15 K, m1 = 0.003	998.533	1483.6	1.005
293.15 K, m1 = 0.004	998.618	1483.8	1.007
293.15 K, m1 = 0.006	998.805	1484.4	1.011
293.15 K, m1 = 0.008	999.003	1485	1.016
293.15 K, m1 = 0.01	999.241	1485.8	1.021
293.15 K, m1 = 0.014	999.685	1486.9	1.033
293.15 K, m1 = 0.018	1000.14	1487.9	1.041
293.15 K, m1 = 0.022	1000.59	1488.8	1.048
293.15 K, m1 = 0.026	1001	1489.7	1.056
293.15 K, m1 = 0.03	1001.44	1490.2	1.063
298.15 K, m1 = 0.001	997.158	1497	0.8906
298.15 K, m1 = 0.002	997.267	1497.3	0.8925
298.15 K, m1 = 0.003	997.369	1497.6	0.8939
298.15 K, m1 = 0.004	997.455	1497.9	0.8955
298.15 K, m1 = 0.006	997.635	1498.4	0.8987
298.15 K, m1 = 0.008	997.835	1499.1	0.902
298.15 K, m1 = 0.01	998.035	1499.7	0.9055
298.15 K, m1 = 0.014	998.454	1500.8	0.9168
298.15 K, m1 = 0.018	998.905	1501.7	0.9239
298.15 K, m1 = 0.022	999.354	1502.6	0.9315
298.15 K, m1 = 0.026	999.746	1503.4	0.9373
298.15 K, m1 = 0.03	1000.14	1504	0.9429
303.15 K, m1 = 0.001	995.785	1509.5	0.798
303.15 K, m1 = 0.002	995.901	1509.8	0.7991
303.15 K, m1 = 0.003	996.001	1510	0.7999
303.15 K, m1 = 0.004	996.102	1510.2	0.8022
303.15 K, m1 = 0.006	996.301	1510.7	0.8047
303.15 K, m1 = 0.008	996.513	1511.3	0.8075
303.15 K, m1 = 0.01	996.724	1511.8	0.8105
303.15 K, m1 = 0.014	997.167	1512.8	0.8215
303.15 K, m1 = 0.018	997.524	1513.8	0.8281
303.15 K, m1 = 0.022	997.945	1514.6	0.8321
303.15 K, m1 = 0.026	998.31	1515.4	0.838
303.15 K, m1 = 0.03	998.815	1516.1	0.8429
308.15 K, m1 = 0.001	994.145	1520.2	0.7202
308.15 K, m1 = 0.002	994.255	1520.5	0.7212
308.15 K, m1 = 0.003	994.348	1520.7	0.7225
308.15 K, m1 = 0.004	994.455	1520.9	0.7241
308.15 K, m1 = 0.006	994.7	1521.4	0.7265
308.15 K, m1 = 0.008	994.885	1522	0.7295
308.15 K, m1 = 0.01	995.101	1522.4	0.7323
308.15 K, m1 = 0.014	995.521	1523.4	0.7415
308.15 K, m1 = 0.018	995.957	1524.2	0.7461
308.15 K, m1 = 0.022	996.357	1525	0.7509
308.15 K, m1 = 0.026	996.744	1525.8	0.7561
308.15 K, m1 = 0.03	997.176	1526.4	0.7619
313.15 K, m1 = 0.001	992.351	1529.3	0.6535
313.15 K, m1 = 0.002	992.449	1529.6	0.6544
313.15 K, m1 = 0.003	992.547	1529.8	0.6556
313.15 K, m1 = 0.004	992.655	1530	0.6571
313.15 K, m1 = 0.006	992.873	1530.4	0.6595
313.15 K, m1 = 0.008	993.087	1530.9	0.662
313.15 K, m1 = 0.01	993.304	1531.3	0.6648
313.15 K, m1 = 0.014	993.711	1532.3	0.6722
313.15 K, m1 = 0.018	994.126	1533.1	0.6772
313.15 K, m1 = 0.022	994.505	1533.9	0.6813
313.15 K, m1 = 0.026	994.935	1534.6	0.6865
313.15 K, m1 = 0.03	995.354	1535.2	0.6918
318.15 K, m1 = 0.001	990.351	1536.9	0.5973
318.15 K, m1 = 0.002	990.445	1537.2	0.5985
318.15 K, m1 = 0.003	990.539	1537.3	0.5997
318.15 K, m1 = 0.004	990.629	1537.5	0.6013
318.15 K, m1 = 0.006	990.864	1537.9	0.6035
318.15 K, m1 = 0.008	991.051	1538.3	0.6062
318.15 K, m1 = 0.01	991.257	1538.7	0.609
318.15 K, m1 = 0.014	991.671	1539.5	0.6161
318.15 K, m1 = 0.018	992.088	1540.4	0.6201
318.15 K, m1 = 0.022	992.491	1541.2	0.6245
318.15 K, m1 = 0.026	992.905	1541.9	0.6291
318.15 K, m1 = 0.03	993.313	1542.5	0.6328
